Experimental data taken from patent US8834841B2, “Imaging agents” (priority 2005, dated 2014).

Columns and labels:
SKOV3 ovarian carcinoma = experiment: in vitro amino acid uptake, SKOV3 cells; format: cell-based, human
Text: (§1) The inventive compounds have been evaluated in vitro for tumor binding specificity (i.e. uptake cells) using a variety of tumor cell lines available in the art, along with reference compounds such as Me-AIB and BCH. Detailed description of these assays can be found in Martarello et al. (2002) Journal of Medicinal Chemistry, 45:2250-2259 and McConathy et al. (2003) Nuclear Medicine and Biology, 30:477-490. These, so called “amino acid uptake studies” are typically carried out with radiolabeled compounds in at least five phenotypically different human tumor cell lines (e.g. A549 lung carcinoma, MB468 breast carcinoma, DU145 prostate carcinoma, SKOV3 ovarian carcinoma, and U87 glial blastoma). These tumor cell lines can be grown either in vitro or in vivo with severe combined immunodeficiency (SCID) mice as a host. The fore-mentioned tumor cell lines are available at the Winship Cancer Institute of Emory University.
(§2) For the in vitro amino acid uptake studies, all cells can be grown to monolayer confluency in T-175 culture flasks [Corning, Corning, N.Y.] (approx. 1×10^8 cells/flask) in Dulbecco's Modified Eagle's Medium (DMEM) [Sigma, St. Louis, Mo.] in a humidified incubator (37° C., 5% CO2/95% air). Media are supplemented with 10% fetal calf serum [Hyclone, Logan, Utah], and antibiotics (10,000 U/ml penicillin and 10 mg/ml streptomycin) (Sigma, St. Louis, Mo.). For tissue culture passage, monolayer cells are detached by gentle trypsinization, resuspended in complete media, and split 1:10 into new T-flasks. […]
(§3) In the in vitro studies the uptake rate of each amino acid compound is measured in each tumor line, as well as the dominant transport mechanisms of each tumor cell line. After trypsinization, cells are resuspended in serum-free media, then counted on a hemocytometer, with viability assessed through Trypan blue staining. […] The vials are placed in a Cobra-II gamma counter (Packard, Meriden, Conn.), with the activity per cell number determined. […] Saline washes are performed as described above, and the filtered cells radioactivity determined on the gamma counter. […]

[1] = test system: SKOV3 Ovarian Tumor Cells Implanted SC in SCID Mice; experiment: tissue distribution, SKOV3 tumor-bearing SCID mice; format: in vivo
Experimental: For the in vitro amino acid uptake studies, all cells can be grown to monolayer confluency in T-175 culture flasks [Corning, Corning, N.Y.] (approx. 1×10^8 cells/flask) in Dulbecco's Modified Eagle's Medium (DMEM) [Sigma, St. Louis, Mo.] in a humidified incubator (37° C., 5% CO2/95% air). Media are supplemented with 10% fetal calf serum [Hyclone, Logan, Utah], and antibiotics (10,000 U/ml penicillin and 10 mg/ml streptomycin) (Sigma, St. Louis, Mo.). For tissue culture passage, monolayer cells are detached by gentle trypsinization, resuspended in complete media, and split 1:10 into new T-flasks. Cultures are passaged weekly, and fed fresh media every 2 to 3 days. To initiate tumor growth in SCID mice, 1×10^6 cells are injected s.c. bilaterally into the flanks (inguinal region) of the recipient animals using a 1 ml syringe with a 27 gauge needle. Ex vivo experiments can be performed with animals containing tumors weighing between 500 mg and 1 g, as estimated by caliper measurement (tumor weight=(π/6)*abc, where a, b and c are the tumor length, width and height, respectively). The compounds of the invention are further evaluated for their tumor specificity and selectivity in tumor-bearing animal models. One can evaluate and compare the transport, accumulation and tissue distribution of each compound in these in vivo animal studies. Tissue distribution of the compounds is measured in SCID mice (average weight, 20-25 g) bearing human tumors as follows. The candidate radioligands (20 uCi in 0.4 ml 0.9% NaCl) are injected into the tail vein of tumor-bearing mice. […] Tissues (blood, heart, liver, lungs, kidneys, bone, thyroid, muscle, brain and tumor) are excised, rinsed in saline, and blotted dry. The tissues are weighed, placed into 12×75 mm glass vials, the radioactivity determined with a gamma counter, and the percent dose/gram calculated. Total activities of blood and muscle are calculated by assuming that they account for 7% and 40% of the total body mass, respectively.

DU145 prostate carcinoma = experiment: in vitro amino acid uptake, DU145 cells; format: cell-based, human
Text: as §1, §2, §3

% Dose/g blood ([1]; 15 Minutes): 3.01 % Dose/g | % Dose/g bone ([1]; 15 Minutes): 1.40 % Dose/g | % Dose/g brain ([1]; 15 Minutes): 0.18 % Dose/g | % Dose/g heart ([1]; 15 Minutes): 2.37 % Dose/g | % Dose/g kidney ([1]; 15 Minutes): 8.70 % Dose/g | % Dose/g liver ([1]; 15 Minutes): 2.62 % Dose/g | % Dose/g lung ([1]; 15 Minutes): 3.96 % Dose/g | % Dose/g muscle ([1]; 15 Minutes): 1.14 % Dose/g | % Dose/g pancreas ([1]; 15 Minutes): 34.27 % Dose/g | % Dose/g spleen ([1]; 15 Minutes): 5.00 % Dose/g | % Dose/g tumor ([1]; 15 Minutes): 4.89 % Dose/g | % Dose/g blood ([1]; 30 Minutes): 2.22 % Dose/g | % Dose/g bone ([1]; 30 Minutes): 1.46 % Dose/g | % Dose/g brain ([1]; 30 Minutes): 0.21 % Dose/g | % Dose/g heart ([1]; 30 Minutes): 2.16 % Dose/g | % Dose/g kidney ([1]; 30 Minutes): 6.12 % Dose/g | % Dose/g liver ([1]; 30 Minutes): 2.49 % Dose/g | % Dose/g lung ([1]; 30 Minutes): 2.65 % Dose/g | % Dose/g muscle ([1]; 30 Minutes): 1.21 % Dose/g | % Dose/g pancreas ([1]; 30 Minutes): 31.88 % Dose/g | % Dose/g spleen ([1]; 30 Minutes): 5.22 % Dose/g | % Dose/g tumor ([1]; 30 Minutes): 5.56 % Dose/g | % Dose/g blood ([1]; 60 Minutes): 0.94 % Dose/g | % Dose/g bone ([1]; 60 Minutes): 0.91 % Dose/g | % Dose/g brain ([1]; 60 Minutes): 0.15 % Dose/g | % Dose/g heart ([1]; 60 Minutes): 1.40 % Dose/g | % Dose/g kidney ([1]; 60 Minutes): 2.27 % Dose/g | % Dose/g liver ([1]; 60 Minutes): 1.28 % Dose/g | % Dose/g lung ([1]; 60 Minutes): 1.26 % Dose/g | % Dose/g muscle ([1]; 60 Minutes): 1.03 % Dose/g | % Dose/g pancreas ([1]; 60 Minutes): 17.57 % Dose/g | % Dose/g spleen ([1]; 60 Minutes): 2.57 % Dose/g | % Dose/g tumor ([1]; 60 Minutes): 4.53 % Dose/g | % Dose/g blood ([1]; 120 Minutes): 0.53 % Dose/g | % Dose/g bone ([1]; 120 Minutes): 0.94 % Dose/g | % Dose/g brain ([1]; 120 Minutes): 0.16 % Dose/g | % Dose/g heart ([1]; 120 Minutes): 1.00 % Dose/g | % Dose/g kidney ([1]; 120 Minutes): 1.37 % Dose/g | % Dose/g liver ([1]; 120 Minutes): 0.67 % Dose/g | % Dose/g lung ([1]; 120 Minutes): 0.68 % Dose/g | % Dose/g muscle ([1]; 120 Minutes): 0.65 % Dose/g | % Dose/g pancreas ([1]; 120 Minutes): 10.42 % Dose/g | % Dose/g spleen ([1]; 120 Minutes): 1.51 % Dose/g | % Dose/g tumor ([1]; 120 Minutes): 3.39 % Dose/g
SMILES: NC1(C(=O)O)CCC1[18F] [Anti-R,S 2-[^18F]FACBC, (R,S) anti-1-amino-2-[^18F]fluorocyclobutyl-1-carboxylic acid]
% Dose Uptake/0.5e6 Cells (SKOV3 ovarian carcinoma; SKOV3, No inhibitor): 2.16 +/− 0.14 % Dose Uptake/0.5e6 Cells | % Dose Uptake/0.5e6 Cells (SKOV3 ovarian carcinoma; SKOV3, inhibitor BCH (10 mM)): 1.74 +/− 0.01 % Dose Uptake/0.5e6 Cells | % Dose Uptake/0.5e6 Cells (SKOV3 ovarian carcinoma; SKOV3, inhibitor MeAlB (10 mM)): 0.75 +/− 0.01 % Dose Uptake/0.5e6 Cells | % Dose Uptake/0.5e6 Cells (DU145 prostate carcinoma; DU145, No inhibitor): 6.40 +/− 0.60 % Dose Uptake/0.5e6 Cells | % Dose Uptake/0.5e6 Cells (DU145 prostate carcinoma; DU145, inhibitor BCH (10 mM)): 1.78 +/− 0.20 % Dose Uptake/0.5e6 Cells | % Dose Uptake/0.5e6 Cells (DU145 prostate carcinoma; DU145, inhibitor MeAlB (10 mM)): 2.07 +/− 0.26 % Dose Uptake/0.5e6 Cells
